This note sets out measurements from patent publication US20050090399A1, “Phenyl substituted heterocyclic compounds useful as herbicides” (priority 2002, published 2005).

The subject of data set [1] is summer wheat (Lona). Kind of data set: Pre-emergence herbicidal action, greenhouse pot test: damage to summer wheat. Type of data set: in vivo. The conditions noted are these: 125 g/ha. How it is done:
(§1) Monocotyledonous and dicotyledonous weeds and summer wheat (Lona) are sown in standard soil in plastics pots. Directly after sowing, the test compounds are applied as EC 125 and WP 10 (without additional surface-active compounds). The rate of application is 125 g of active substance per ha. The test plants are then grown on in the greenhouse under optimum conditions. Evaluation is carried out 20 days after application: 100 denotes 100% damage to the plant in question.
(§2) Test plants: Agrostis (Agr), Alopecurus (Alo), Phalaris (Pha), Lolium (Lol) and Setaria (Set).

For data set [2], the system named is Agrostis (Agr). The data set can be described thus: Pre-emergence herbicidal action, greenhouse pot test: Agrostis. Type of data set: in vivo. Conditions: 125 g/ha. The method, then: as §1, §2
Data set [3] concerns Alopecurus (Alo). Kind of data set: Pre-emergence herbicidal action, greenhouse pot test: Alopecurus. Type of data set: in vivo. Conditions: 125 g/ha. The method, then:
as §1, §2

In data set [4] the test system is Phalaris (Pha). Kind of data set: Pre-emergence herbicidal action, greenhouse pot test: Phalaris. Conditions: 125 g/ha. Type of data set: in vivo. How it is done: as §1, §2
Data set [5] deals with Lolium (Lol). Kind of data set: Pre-emergence herbicidal action, greenhouse pot test: Lolium. Conditions: 125 g/ha. Type of data set: in vivo. How it is done:
as §1, §2

Data set [6] deals with Setaria (Set). The data set can be described thus: Pre-emergence herbicidal action, greenhouse pot test: Setaria. The format is in vivo. The conditions noted are these: 125 g/ha. How it is done: as §1, §2
[7] abbreviates: applied directly after sowing as WP 10, evaluation 20 days after application.
Where [8] appears, read: applied directly after sowing as EC 125, evaluation 20 days after application.

The structures appear in SMILES notation.

Take `CCCCCCCCCCCC(=O)Oc1c(-c2c(CC)cc(C)cc2CC)c(=O)n2n1CCOCC2` [1.01]: the melting point (as a rule, the temperature of the solid-liquid transition) lay in the range of 106 to 107 °C.
Same read-out and setting: in the case of `CCCCCCCCCCCCCCCC(=O)Oc1c(-c2c(CC)cc(C)cc2CC)c(=O)n2n1CCOCC2` [1.02] it was 91 to 92 °C.
Regarding `CCCCCCCC/C=C\CCCCCCCC(=O)Oc1c(-c2c(CC)cc(C)cc2CC)c(=O)n2n1CCOCC2` [compound 1.03], the “Herbicidal action (damage to the plant), wheat” value (shortened to “Herbicidal action … wheat”) in data set [1] (setting [7]) was found to be 10%. For the same compound, in data set [2] (setting [7]), the “Herbicidal action (damage to the plant), Agr” value (shortened to “Herbicidal action … Agr”) was found to be 98%. Moreover, the “Herbicidal action (damage to the plant), Alo” value (“Herbicidal action … Alo” for short) in data set [3] (setting [7]) worked out at 90%. The “Herbicidal action (damage to the plant), Pha” value (“Herbicidal action … Pha” below) in data set [4] (setting [7]) amounted to 100%. In addition, the “Herbicidal action (damage to the plant), Lol” value (shortened to “Herbicidal action … Lol”) in data set [5] (setting [7]) was 90%. For the same compound, the “Herbicidal action (damage to the plant), Set” value (“Herbicidal action … Set” for short) in data set [6] (setting [7]) is 100%.
With `CCCCCCCC/C=C\CCCCCCCCC(C)(C)C(=O)Oc1c(-c2c(CC)cc(C)cc2CC)c(=O)n2n1CCOCC2` [compound 1.05b], the “Herbicidal action … wheat” value in data set [1] (setting [7]) is on record as 0%. Moreover, the “Herbicidal action … Agr” value in data set [2] (setting [7]) is 80%. Besides, the “Herbicidal action … Alo” value in data set [3] (setting [7]) worked out at 80%. Further, the “Herbicidal action … Pha” value in data set [4] (setting [7]) stood at 100%. Besides, the “Herbicidal action … Lol” value in data set [5] (setting [7]) is 70%. For the same compound, the “Herbicidal action … Set” value in data set [6] (setting [7]) was determined as 70%.
Consider `CCCCCCCC/C=C\CCCCCCCCC(C)C(=O)Oc1c(-c2c(CC)cc(C)cc2CC)c(=O)n2n1CCOCC2` (centres unmarked) [compound 1.12b], for which, in data set [1] (setting [7]), the “Herbicidal action … wheat” value amounted to 10%. For the same compound, the “Herbicidal action … Agr” value in data set [2] (setting [7]) came to 95%. In addition, the “Herbicidal action … Alo” value in data set [3] (setting [7]) worked out at 90%. Further, the “Herbicidal action … Pha” value in data set [4] (setting [7]) is listed as 100%. Besides, the “Herbicidal action … Lol” value in data set [5] (setting [7]) turned out to be 80%. Further, in data set [6] (setting [7]), the “Herbicidal action … Set” value stood at 90%.
As for `CCc1cc(C)cc(CC)c1C1C(=O)N2CCOCCN2C1=O` [compound A, 8-(2,6-diethyl-4-methyl-phenyl)-tetrahydropyrazolo[1,2-d][1,4,5]oxadiazepine-7,9-dione, reference compound], the “Herbicidal action … wheat” value in data set [1] (setting [8]) turned out to be 20%. The “Herbicidal action … Agr” value in data set [2] (setting [8]) was determined as 95%. Moreover, in data set [3] (setting [8]), the “Herbicidal action … Alo” value amounted to 100%. The “Herbicidal action … Pha” value in data set [4] (setting [8]) is 100%. Besides, the “Herbicidal action … Lol” value in data set [5] (setting [8]) is on record as 98%. In data set [6] (setting [8]), the “Herbicidal action … Set” value amounted to 100%.
